Measurements reported in BigSolDB 2.1.

Settings: in water

O=C(O)c1cc(O)c(O)c(O)c1
Settings | solubility (mole fraction)
298 K | 0.00158
303 K | 0.00176
308 K | 0.00203
313 K | 0.00248
318 K | 0.00311
323 K | 0.00433
328 K | 0.00557
333 K | 0.00712
338 K | 0.00898
343 K | 0.0126
